Experimental data taken from paper PMC10361461, “Evaluating the solubility of compounds intended for intramammary infusion based upon tests conducted across a range of milk matrices” (PLOS ONE, 2023).
Values after ≈ are worked out from the molar mass of the structure shown. Where a name gives a salt, the structure may show the parent alone. Read-outs that look alike come from different tables or passages of the source. Marks after values point to notes of the source that are not given here. Blank lines part the entries; values can stand above or below the molecule they belong to.

What was measured:
[1] = system: plasma protein; conditions: cited from earlier work
[2] = Solubility in milk related vehicles, previous study (Li et al., 2022); format: physicochemical; conditions: RT; data ref 6
[3] = cited from earlier work
[4] = cited from earlier work; for Solubility in Water at 25°C: descriptions and ranges based on USP definitions
[5] = cited from earlier work; remark: listed apart in the source
[6] = Solubility assessment in milk vehicles and 10 mM sodium phosphate buffer pH 6.8, HPLC analysis; format: physicochemical; conditions: for USP solubility classification: across tested media; for solubility at 60 min: thermodynamic from solid
Experimental: Solubility assessment was performed in all milk vehicles listed above. A 10 mM sodium phosphate buffer pH 6.8 was also included as a control. For each solubility sample, an excess amount of drug powder was weighed in a 20-mL glass vial. A suitable volume of the vehicle, pre-equilibrated to the desired temperature, was added to the drug powder. The samples were stirred for 60 minutes at 38°C or 20°–25°C [room temperature (RT)] prior to processing. The temperature of 38°C reflects the rectal temperature the healthy adult cow, 38°C [17].
Upon completion of this portion of the test procedure, approximately 2 mL of the solubility sample was passed through the Phenex-GF 1.2 μm filter to remove the excess drug solid. The filtration and solvent extraction steps were carried out immediately for each sample after the solubility testing was completed. All supplies used in the filtration were pre-equilibrated at the corresponding temperature. […] An aliquot of 0.5 mL filtrate was accurately transferred to a microcentrifuge tube followed by the addition of 1 mL extraction solvent. The extraction solvent was 0.1% TFA in acetonitrile (mobile phase channel B). The mixture was then centrifuged at 10,000 rpm, and about 1 mL of the supernatant was passed through a Phenex-RC 0.45 μm filter. The filtrate was collected in an HPLC autosampler vial and analyzed by the HPLC method described below.
A gradient HPLC method, described in Table 5, was used to analyze the concentration of all drug solubility samples after treatment.

[7] = design: method as in earlier work; conditions: cited from earlier work
[8] = room temperature, expressed as free form of cephapirin

Structure (SMILES): CN(C)CCC=C1c2ccccc2CCc2ccccc21 [Amitriptyline HCl]
Plasma Protein Binding [1]: ~ 95%
pKa ([3]; base): 9.45 (base)
Ionization state at pH 7 [3]: Positively charged
Log P ([5]; free base): 5.0
Log P ([5]; pH 7.4): 3.0
Solubility in Water at 25°C [4]: Freely Soluble (100–1000 mg/mL)

Structure (SMILES): CN1C(C(=O)Nc2ccccn2)=C(O)c2ccccc2S1(=O)=O [Piroxicam]
Plasma Protein Binding [1]: ~ 99%
Log P ([5]; pH 6.5): -1.33
Log P ([5]; pH 6.6): 0.72
Solubility in Water at 25°C [4]: Practically Insoluble (≤ 0.1 mg/mL)^c
Solubility in aqueous buffer ([7]; aqueous buffer): 0.287 ± 0.019 mg/mL (≈ 866 µM)
Solubility in skim milk ([7]; skim milk): 0.262 ± 0.005 mg/mL (≈ 791 µM)

Structure (SMILES): C[C@]12C=CC(=O)C=C1CC[C@@H]1[C@@H]2[C@@H](O)C[C@@]2(C)[C@H]1CC[C@]2(O)C(=O)CO [Prednisolone]
Plasma Protein Binding [1]: 60–90%
pKa ([3]; in words): Non-ionizable
Ionization state at pH 7 [3]: Neutral
Log P [5]: ~ 1.6

Continued, in another order:

Ratio of solubility, Reconstituted whole milk versus raw milk [2]: 1.01
Ratio of solubility, Skim milk versus raw milk [2]: 1.08
Ratio of solubility, Whole milk versus raw milk [2]: 1.05
Ratio of solubility, pH 6.8 buffer versus raw milk [2]: 1.05
Structure (SMILES): CC(=O)Nc1ccc(O)cc1 [Acetaminophen]
Plasma Protein Binding [1]: 20–25%
Ionization state at pH 7 [3]: Neutral
Solubility in Water at 25°C [4]: Sparingly Soluble (10–33 mg/mL)

Solubility, Raw Milk ([6]; 38°C, expressed as free form of cephapirin): 0.706 ± 0.021 mg/mL
Solubility, Reconstituted Whole Milk Powder (Nestle), Lot 1 ([6]; 38°C, milk powder Lot 1, expressed as free form of cephapirin): 0.740 ± 0.005 mg/mL
Solubility, Reconstituted Whole Milk Powder (Nestle), Lot 2 ([6]; 38°C, milk powder Lot 2, expressed as free form of cephapirin): 0.762 ± 0.028 mg/mL
USP solubility classification [6]: very slightly soluble
Solubility, Raw Milk [6, 8]: 0.476 ± 0.003 mg/mL
Solubility, Reconstituted Whole Milk Powder (Nestle) [6, 8]: 0.508 ± 0.006 mg/mL
Solubility, Skim Milk [6, 8]: 0.460 ± 0.007 mg/mL
Solubility, Whole Milk [6, 8]: 0.509 ± 0.010 mg/mL
Solubility, pH 6.8 buffer (control) [6, 8]: 0.352 ± 0.003 mg/mL
Structure (SMILES): CC(=O)OCC1=C(C(=O)O)N2C(=O)[C@@H](NC(=O)CSc3ccncc3)[C@H]2SC1.CC(=O)OCC1=C(C(=O)O)N2C(=O)[C@@H](NC(=O)CSc3ccncc3)[C@H]2SC1.c1ccc(CNCCNCc2ccccc2)cc1 [Cephapirin Benzathine, Cephapirin benzathine]
Solubility in 0.1 N HCl (descriptive) ([4]; 0.1 N HCl): soluble
Solubility in alcohol (descriptive) ([4]; alcohol): freely soluble
Solubility in ether (descriptive) ([4]; ether): practically insoluble
Solubility in toluene (descriptive) ([4]; toluene): practically insoluble
Solubility in water (descriptive) [4]: practically insoluble

solubility at 60 min ([6]; 10 mM sodium phosphate buffer, pH 6.8, aqueous buffer, room temperature, expressed as free form of cephapirin, read-out: Solubility, pH 6.8 buffer (control)): > 200 mg/mL
USP solubility classification [6]: freely soluble
solubility at 60 min ([6]; bovine, 38 °C, plasma or biological fluid, reconstituted and raw milk, read-out: Solubility in reconstituted and raw milk): > 500 mg/mL
solubility at 60 min ([6]; bovine, milk vehicles (all tested media except the pH 6.8 buffer), plasma or biological fluid, all tested media with the exception of the pH 6.8 aqueous buffer, read-out: Solubility in the tested media): > 350 mg/mL
solubility at 60 min ([6]; bovine, raw milk, plasma or biological fluid, 38°C, expressed as free form of cephapirin, read-out: Solubility, Raw Milk): > 500 mg/mL
solubility at 60 min ([6]; bovine, raw milk, plasma or biological fluid, room temperature, expressed as free form of cephapirin, read-out: Solubility, Raw Milk): > 350 mg/mL
solubility at 60 min ([6]; bovine, reconstituted whole milk powder (Nestle), plasma or biological fluid, room temperature, expressed as free form of cephapirin, read-out: Solubility, Reconstituted Whole Milk Powder (Nestle)): > 350 mg/mL
solubility at 60 min ([6]; bovine, skim milk, plasma or biological fluid, room temperature, expressed as free form of cephapirin, read-out: Solubility, Skim Milk): > 350 mg/mL
solubility at 60 min ([6]; bovine, whole milk, plasma or biological fluid, room temperature, expressed as free form of cephapirin, read-out: Solubility, Whole Milk): > 350 mg/mL
solubility at 60 min ([6]; reconstituted whole milk powder (Nestle), plasma or biological fluid, 38°C, expressed as free form of cephapirin, read-out: Solubility, Reconstituted Whole Milk Powder (Nestle)): > 500 mg/mL
Structure (SMILES): CC(=O)OCC1=C(C(=O)O)N2C(=O)[C@@H](NC(=O)CSc3ccncc3)[C@H]2SC1 [Cephapirin Sodium, Cephapirin sodium]
Solubility in most organic solvents (descriptive) ([4]; most organic solvents): insoluble
Solubility in water (descriptive) [4]: very soluble

Ratio of solubility, Reconstituted whole milk versus raw milk [2]: 1.16
Ratio of solubility, Skim milk versus raw milk [2]: 1.04
Ratio of solubility, Whole milk versus raw milk [2]: 1.08
Ratio of solubility, pH 6.8 buffer versus raw milk [2]: 0.64
Structure (SMILES): C[C@@H]1C[C@H]2[C@@H]3CCC4=CC(=O)C=C[C@]4(C)[C@@]3(F)[C@@H](O)C[C@]2(C)[C@@]1(O)C(=O)CO [Dexamethasone]
Plasma Protein Binding [1]: ~77%
pKa ([3]; in words): Non-ionizable
Ionization state at pH 7 [3]: Neutral
Solubility in Water at 25°C [4]: Practically Insoluble (≤ 0.1 mg/mL)
